According to publication PMC6149812, “Access to New Cytotoxic Quinone-Amino Acid Conjugates Linked through A Vinylic Spacer from 2-Acylnaphthoquinones and Methyl 3-Aminocrotonate” (Molecules : A Journal of Synthetic Chemistry and Natural …, 2017):
Like-named read-outs stand apart in the source and are kept apart here.

Columns and labels:
[1] = system: AGS human gastric adenocarcinoma cells; test: MTT reduction cytotoxicity assay, 72 h drug exposure, AGS; format: cell-based; settings: human gastric adenocarcinoma cell line, 72 h exposure, average of six determinations, read-out: IC50 ± SEM, AGS
[2] = system: SK-MES-1 human lung cancer cells; test: MTT reduction cytotoxicity assay, 72 h drug exposure, SK-MES-1; format: cell-based; settings: 72 h exposure, average of six determinations, read-out: IC50 ± SEM, SK-MES-1
[3] = system: J82 human bladder carcinoma cells; test: MTT reduction cytotoxicity assay, 72 h drug exposure, J82; format: cell-based; settings: human bladder carcinoma cell line, 72 h exposure, average of six determinations, read-out: IC50 ± SEM, J82
[4] = system: MRC-5 normal human lung fibroblasts; test: cells; settings: MRC5, 72 h, read-out: IC50 ± SEM, MRC-5
Protocol: (§1) Cytotoxic activities of the compounds are expressed in terms of IC50. Etoposide, a clinically used anticancer agent, was taken as a positive control.
(§2) Media were supplemented with 10% heat-inactivated fetal bovine serum (FBS), 100 IU/mL penicillin and 100 μg/mL streptomycin and cell cultures were kept in a humidified incubator with 5% CO2 in air at 37 °C. For the cytotoxicity experiments, cells were seeded into 96-well plates at a density of 50,000 cells/mL. After reaching confluence, cells were incubated for three days with compounds at varied concentrations ranging from 0 up to 100 μM while untreated cells (medium containing 1% DMSO) were used as controls. Cytotoxicity was assessed using the MTT (3-(4,5-dimethylthiazol-2-yl)-2,5-diphenyltetrazolium bromide) reduction assay. […] Values were the means of six replicates for each concentration and transformed to percentage of controls.

[5] = system: MRC-5 normal human lung fibroblasts; settings: for IC50: read-out: IC50 ± SEM, MRC-5, normal human lung fibroblasts, 72 h exposure, MTT, average of six determinations
Protocol: as §1, §2

[6] = MTT reduction cytotoxicity assay, 72 h drug exposure, cell line panel of Table 3; format: cell-based; settings: human, summary range over the cell lines of Table 3, 72 h exposure, read-out: cytotoxic activities, range of IC50 over Table 3
Protocol: Finally, HL-60 cells were grown in RPMI medium.

[7] = SK-MES-1, human lung cancer cell line

Molecule | IC50 [1] [µM] | IC50 [2, 7] [µM] | IC50 [3] [µM] | IC50 [4] [µM] | IC50 ([2]; human lung cancer cell line) [µM] | IC50 [5] [µM] | cytotoxicity relative to etoposide on normal human lung fibroblasts cells [5] | IC50 at 72 h [6] [µM] | melting point [°C]
COc1cc([C@@H]2c3cc4c(cc3[C@@H](O[C@@H]3O[C@@H]5CO[C@@H](C)O[C@H]5[C@H](O)[C@H]3O)[C@H]3COC(=O)[C@H]23)OCO4)cc(OC)c1O [Ref., etoposide, reference compound] | 0.4 | 2.9 ± 0.2 | 3.3 ± 0.2 | 2.2 ± 0.1 |  |  |  |  | 
Methyl (R,Z)-2-(3-butyryl-1,4-dioxo-1,4-dihydronaphthalen-2-yl)-3-[(1-methoxy-1-oxo-3-phenylpropan-2-yl)amino]-but-2-enoate [Compound 12] | 12.8 ± 0.7 |  | 14 ± 0.6 |  | 15.9 ± 0.9 | 21.8 ± 1.5 |  |  | 
Methyl (S,Z)-3-[(3-(1H-indol-3-yl)-1-methoxy-1-oxopropan-2-yl)amino]-2-(3-hexanoyl-1,4-dioxo-1,4-dihydronaphthalen-2-yl)but-2-enoate [Compound 14] | 9.3 ± 0.6 |  | 4.5 ± 0.2 |  | 5.5 ± 0.2 | 22.1 ± 1.6 | ten times lower |  | 
Methyl (S,Z)-2-(3-benzoyl-1,4-dioxo-1,4-dihydronaphthalen-2-yl)-3-[(1-methoxy-1-oxo-3-phenylpropan-2-yl)amino]-but-2-enoate [Compound 9] | 19.3 ± 1.5 |  | 22 ± 1.1 |  | 39.3 ± 1.6 | 33.3 ± 2.2 |  |  | 
Methyl (R,Z)-2-(3-benzoyl-1,4-dioxo-1,4-dihydronaphthalen-2-yl)-3-[(1-methoxy-1-oxo-3-phenylpropan-2-yl)amino]-but-2-enoate [Compound 10] | 30.7 ± 1.5 |  | 23 ± 0.7 |  | 34.2 ± 2.3 | 46.7 ± 2.9 |  |  | 
Methyl (S,Z)-3-[(3-(1H-indol-3-yl)-1-methoxy-1-oxopropan-2-yl)amino]-2-(3-benzoyl-1,4-dioxo-1,4-dihydronaphthalen-2-yl)-but-2-enoate [Compound 11] | 10.1 ± 0.1 |  | 21.4 ± 0.8 |  | 18.9 ± 0.5 | 13 ± 0.8 |  |  | 
COC(=O)/C(C1=C(C(=O)c2ccccc2)C(=O)c2ccccc2C1=O)=C(/C)N[C@@H](CC(C)C)C(=O)OC [Compound 8, Methyl (Z)-[3-(3-benzoyl-1,4-dioxo-1,4-dihydronaphthalen-2-yl)-4-methoxy-4-oxobut-2-en-2-yl]-L-leucinate] | 26.9 ± 1.5 | 34.5 ± 1.7 | 12.9 ± 0.9 | 26.6 ± 1.3 |  |  |  | 4.5 to 53.4 | 222.5 to 224.5
CCCCCC(=O)C1=C(/C(C(=O)OC)=C(\C)N[C@@H](CC(C)C)C(=O)OC)C(=O)c2ccccc2C1=O [Compound 13, Methyl (Z)-[3-(3-hexanoyl-1,4-dioxo-1,4-dihydronaphthalen-2-yl)-4-methoxy-4-oxobut-2-en-2-yl]-L-leucinate] | 17 ± 1.1 | 21.6 ± 1.3 | 23.5 ± 1.6 | 24.9 ± 0.7 |  |  |  | 4.5 to 53.4 | 
COC(=O)/C(C1=C(C(=O)c2ccccc2)C(=O)c2ccccc2C1=O)=C(/C)N[C@@H](C)C(=O)OC [Compound 6, Methyl (S,Z)-2-(3-benzoyl-1,4-dioxo-1,4-dihydronaphthalen-2-yl)-3-[(1-methoxy-1-oxopropan-2-yl)amino]-but-2-enoate] | 52.7 ± 3.7 | 47.8 ± 3.3 | 37.1 ± 2.2 | 58 ± 4.1 |  |  |  | 4.5 to 53.4 | 217 to 218
COC(=O)C1=C(C)N(CCO)C(C)(O)C2=C1C(=O)c1ccccc1C2=O (stereo not shown) [Compound 5a, Methyl 1-hydroxy-2-(2-hydroxyethyl)-1,3-dimethyl-5,10-dioxo-1,2,5,10-tetrahydrobenzo[g]isoquinoline-4-carboxylate] |  |  |  |  |  |  |  |  | 215 to 217
COC(=O)C1=C(C)N(CCO)C(O)(c2ccccc2)C2=C1C(=O)c1ccccc1C2=O (stereo not shown) [Compound 5b, Methyl 1-hydroxy-2-(2-hydroxyethyl)-3-methyl-5,10-dioxo-1-phenyl-1,2,5,10-tetrahydrobenzo[g] isoquinoline-4-carboxylate] |  |  |  |  |  |  |  |  | 236.5 to 238.5
COC(=O)/C(C1=C(C(=O)c2ccccc2)C(=O)c2ccccc2C1=O)=C(/C)N[C@H](C)C(=O)OC [Compound 7, Methyl (R,Z)-2-(3-benzoyl-1,4-dioxo-1,4-dihydronaphthalen-2-yl)-3-[(1-methoxy-1-oxopropan-2-yl)amino]-but-2-enoate] | 20.5 ± 1.1 | 53.4 ± 4.3 | 35.6 ± 1.4 | 17.4 ± 0.7 |  |  |  | 4.5 to 53.4 | 
